Results as given in US9562059B2, “Anticancer maytansinoids with two fused macrocyclic rings” (priority 2013, dated 2017).
“Also recorded” adds a separate entry of the source. Like-named read-outs stand apart in the source and are kept apart here.

Tests used:
KB cells = conditions: Powell et al. (1982); cited from earlier work
[1] = test system: P388 lymphocytic leukemia; conditions: Powell et al. (1982); cited from earlier work
[2] = test system: human prostate carcinoma LNCaP cell line; assay: Cell culture panel bioassay, LNCaP cell line; assay type: cell-based; conditions: for IC50: read-out: IC50 LNCaP
Description: (§1) Human oral epidermoid carcinoma KB cell line, human promyelocytic leukemia HL-60 cell line, human prostate carcinoma LNCaP cell line, human breast carcinoma MCF-7 cell line, human colon carcinoma Col2 cell line, and human lung carcinoma Lu1 cell line are activated from the frozen cells that are stored in Department of Medicinal Chemistry and Pharmacognosy, University of Illinois at Chicago, Chicago, Ill. Col2 cells are maintained in MEME medium. KB cells are maintained in DMEM medium. LNCaP cells are maintained in RPMI1640 medium with hormone-free 10% […] FBS (fetal bovine serum) supplemented with 0.1 nM testosterone, Lu1 cells are cultured in MEME medium. MCF-7 cells are maintained in MEME medium containing 10 mg/L of insulin. In each case, PSF (100 units/mL penicillin G, 100 μg/mL streptomycin sulfate, 250 ng/mL amphotericin B) is added. All media are supplemented with 10% heat-inactivated FBS.
(§2) Extracts, fractions, and compounds are tested in a human oral epidermoid carcinoma (KB) cell line using established protocols. In addition, all pure compounds are evaluated against the other human cancer cell lines comprising our cytotoxicity screening panel. Cytotoxicity assays involving colon (Col-2), prostate (LNCaP), and lung (Lu1) carcinoma cell lines are performed using sulforhodamine B according to established protocols.

[3] = test system: human breast carcinoma MCF-7 cell line; assay: Cell culture panel bioassay, MCF-7 cell line; assay type: cell-based
Description: as §1, §2

Lu1 cells = assay: In vivo hollow fiber test, Lu1 cells; design: species or system mice
Description: (§3) Hollow fiber tests are well known in the art for providing preliminary indications of therapeutic efficacy (Mi et al. (2002), J. Nat. Prod. 65: 842-850). In hollow fiber tests, human tumor cell lines currently employed in cell cultures are grown inside semipermeable hollow fibers to form heterogeneous solid tumor models. The hollow fibers containing the human tumor cells are implanted in the intraperitoneal or subcutaneous compartments of host mice, and the mice treated with the test compound of interest (Hollingshead et al, (1995), Life Sciences 57(2):131-141).
(§4) Loeseneriellin B isolated from Loeseneriella pauciflora (Celastraceae) is tested for in vivo hollow fiber study.

[4] = test system: human colon carcinoma Col2 cell line; assay: Cell culture panel bioassay, Col2 cell line; assay type: cell-based
Description: as §1, §2

[5] = test system: human oral epidermoid carcinoma KB cell line; assay: Cell culture panel bioassay, KB cell line; assay type: cell-based; conditions: read-out: IC50 KB
Description: as §1, §2

MCF7 cells = assay: In vivo hollow fiber test, MCF7 cells; design: species or system mice
Description: as §3, §4

HCT116 cancer cells = assay: HCT116 xenograft mouse model, tumor growth; assay type: in vivo, nude mice; conditions: for average tumor size (L×W×W) suppressed in comparison with the control group: after 21 days
Description: (§5) HCT116 cancer cells (2×10^7 cells in 100 μL suspension) are subcutaneously implanted in the rear flank of each mouse. After 10 days, solid tumors appear at the implanted sites. […] Daily injections at i.v. sites were scheduled for 21 days.
(§6) FIGS. 1 to 3 show the inhibition of HCT116-tumor xenograft growth by loeseneriellin B. The treatment started on the 10th day when the tumor size reached approximately 100 mm^3 (L×W×W).

Col2 cells = assay: In vivo hollow fiber test, Col2 cells; design: species or system mice
Description: as §3, §4

[6] = HCT116 xenograft mouse model, body weight; assay type: in vivo, nude mice; conditions: 20 and 40 μg/kg i.v. daily for 3 weeks (FIG. 3)
Description: as §5, §6

[7] = test system: KB, Col-2, LNCaP, Lu-1, and MCF-7 cell lines; assay: In vitro anti-tumor activity against the tumor cell line panel; assay type: cell-based, human; conditions: Lu-1, MCF-7
Description: The in vitro anti-tumor activity of isolated compounds (1-6) is evaluated against KB, Col-2, LNCaP, Lu-1, and MCF-7 cell lines. […] However, because of the much different stereochemistry, the bimacrocyclic maytansinoid may have a different anticancer therapeutic window from that of mono-macrocyclic maytansine derivatives.
as §1, with “In each case, PSF (100 units/mL penicillin G, 100 μg/mL streptomycin sulfate, 250 ng/mL amphotericin B) is added. All media are supplemented with 10% heat-inactivated FBS.” left out
Extracts, fractions, and compounds are tested in a human oral epidermoid carcinoma (KB) cell line using established protocols. In addition, all pure compounds are evaluated against the other human cancer cell lines comprising our cytotoxicity screening panel. […]

[8] = test system: human lung carcinoma Lu1 cell line; assay: Cell culture panel bioassay, Lu1 cell line; assay type: cell-based
Description: as §1, §2

[9] = cited from earlier work
[10] = concentration required to inhibit cell growth by 50%, triplicate experiments
[11] = concentration required to inhibit cell growth by 50%, triplicate experiments, read-out: IC50 MCF-7
[12] = concentration required to inhibit cell growth by 50%, triplicate experiments, read-out: IC50 Col2
[13] = concentration required to inhibit cell growth by 50%, triplicate experiments, read-out: IC50 Lu1

Compound: COc1cc2cc(c1Cl)N1CCC(C)(O)C(=O)N[C@@H](C)C(=O)O[C@@H](CC1=O)[C@]1(C)OC1[C@H](C)[C@@H]1C[C@@](O)(NC(=O)O1)[C@H](OC)/C=C/C=C(\C)C2OC (some centres unmarked) [treflorine]
- antitumor activity against KB cells (KB cells): retain antitumor activity
- antitumor activity against P388 lymphocytic leukemia [1]: retain antitumor activity

Compound: COc1cc2cc(c1Cl)N1CC(C)C(C)(O)C(=O)N[C@@H](C)C(=O)O[C@@H](CC1=O)[C@]1(C)OC1[C@H](C)[C@@H]1C[C@@](O)(NC(=O)O1)[C@H](OC)/C=C/C=C(\C)C2 (some centres unmarked) [Compound 1, Loeseneriellin B]
- IC50 ([2]; Homo sapiens, LNCaP): 0.25 nM
- IC50 ([3]; Homo sapiens, MCF7, read-out: IC50 MCF-7): 0.68 nM
- Inhibition (%) (Lu1 cells; Lu1-IP, dose 0.05 mg/kg): 34.9%
- Inhibition (%) (Lu1 cells; Lu1-IP, dose 0.1 mg/kg): 20.9%
- Inhibition (%) (Lu1 cells; Lu1-SC, dose 0.05 mg/kg): 0%
- Inhibition (%) (Lu1 cells; Lu1-SC, dose 0.1 mg/kg): 0%
- IC50 ([4]; Homo sapiens, Col2, read-out: IC50 Col2): 0.2 nM
- IC50 ([5]; Homo sapiens, KB): 0.15 nM
- Inhibition (%) (MCF7 cells; MCF7-IP, dose 0.05 mg/kg, listed as Loeseneriellin B): 57.2%
- Inhibition (%) (MCF7 cells; MCF7-IP, dose 0.05 mg/kg, listed as loeseneriellin B): more than 65%
- Inhibition (%) (MCF7 cells; MCF7-IP, dose 0.1 mg/kg): 75.5%
- Inhibition (%) (MCF7 cells; MCF7-IP, dose 0.2 mg/kg): 84.6%
- Inhibition (%) (MCF7 cells; MCF7-SC, dose 0.05 mg/kg): 0%
- Inhibition (%) (MCF7 cells; MCF7-SC, dose 0.1 mg/kg): 0%
- Inhibition (%) (MCF7 cells; MCF7-SC, dose 0.2 mg/kg): 40.1%
- excised tumor weights, % inhibition versus control (HCT116 cancer cells; high dose 40 μg/kg i.v. daily for 3 weeks (FIG. 2)): 41.7%
- average tumor size (L×W×W) suppressed in comparison with the control group (HCT116 cancer cells; high dose 40 μg/kg i.v. daily): 41.7%
- excised tumor weights, % inhibition versus control (HCT116 cancer cells; low dose 20 μg/kg i.v. daily for 3 weeks (FIG. 2)): 38.3%
- average tumor size (L×W×W) suppressed in comparison with the control group (HCT116 cancer cells; low dose 20 μg/kg i.v. daily): 38.3%
- Inhibition (%) (Col2 cells; Col2-IP, dose 0.05 mg/kg, listed as Loeseneriellin B): 65.5%
- Inhibition (%) (Col2 cells; Col2-IP, dose 0.05 mg/kg, listed as loeseneriellin B): more than 65%
- Inhibition (%) (Col2 cells; Col2-IP, dose 0.1 mg/kg): 70.5%
- Inhibition (%) (Col2 cells; Col2-SC, dose 0.05 mg/kg): 0%
- Inhibition (%) (Col2 cells; Col2-SC, dose 0.1 mg/kg): 1.4%
- body weights of mice [6]: No apparent weight loss; also recorded: insignificant change in body weights
- bioactivity compared with maytansine (3) [7]: comparable bioactivity to that of maytansine
- IC50 ([8]; Homo sapiens, Lu1, read-out: IC50 Lu1): 0.71 nM

Compound: Loeseneriellin A [Compound 2]
- IC50 [2, 10]: 0.18 nM
- IC50 [3, 11]: 0.19 nM
- IC50 [4, 12]: 0.18 nM
- IC50 [5, 10]: 0.1 nM
- IC50 [8, 13]: 0.38 nM

Compound: COc1cc2cc(c1Cl)N(C)C(=O)CC(OC(=O)C(C)N(C)C(=O)CC(C)C)C1(C)OC1C(C)C1CC(O)(NC(=O)O1)C(OC)/C=C/C=C(\C)C2 (centres unmarked) [Compound 6, Maytanvaline]
- IC50 [2, 10]: 0.16 nM
- IC50 [3, 11]: 0.27 nM
- IC50 [4, 12]: 0.15 nM
- IC50 [5, 10]: 0.11 nM
- IC50 [8, 13]: 0.69 nM

Compound: CC(=O)O[C@H]1C(=O)[C@@]2(C)[C@H]([C@H](OC(=O)c3ccccc3)[C@]3(O)C[C@H](OC(=O)[C@H](O)[C@@H](NC(=O)c4ccccc4)c4ccccc4)C(C)=C1C3(C)C)[C@]1(OC(C)=O)CO[C@@H]1C[C@@H]2O [Paclitaxel]
- inhibition at 0.02 µg/mL ([2]; Homo sapiens, LNCaP, at 20 ng/mL, positive control, read-out: inhibition against LNCaP): 89%
- inhibition at 0.02 µg/mL ([3]; Homo sapiens, MCF7, at 20 ng/mL, positive control, read-out: inhibition against MCF-7): 71%
- Inhibition (%) (Lu1 cells; Lu1-IP, dose 2.0 mg/kg): 39.9%
- Inhibition (%) (Lu1 cells; Lu1-SC, dose 2.0 mg/kg): 0%
- inhibition at 0.02 µg/mL ([4]; Homo sapiens, Col2, at 20 ng/mL, positive control, read-out: inhibition against Col2): 76%
- Inhibition (%) (MCF7 cells; MCF7-IP, dose 2.0 mg/kg): 71.3%
- Inhibition (%) (MCF7 cells; MCF7-SC, dose 2.0 mg/kg): 0%
- excised tumor weights, % inhibition versus control (HCT116 cancer cells; 5 mg/kg i.v. daily for 3 weeks (FIG. 2)): 37.6%
- Inhibition (%) (Col2 cells; Col2-SC, dose 2.0 mg/kg): 6.9%
- inhibition at 0.02 µg/mL ([8]; Homo sapiens, Lu1, at 20 ng/mL, positive control, read-out: inhibition against Lu-1): 56%

Compound: CCC(=O)N(C)[C@@H](C)C(=O)O[C@H]1CC(=O)N(C)c2cc(cc(OC)c2Cl)C/C(C)=C/C=C[C@@H](OC)[C@@]2(O)C[C@H](OC(=O)N2)[C@@H](C)[C@@H]2O[C@@]12C [Compound 4, Maytanprine]
- IC50 [2, 10]: 0.16 nM
- IC50 [3, 11]: 0.17 nM
- IC50 [4, 12]: 0.16 nM
- IC50 [5, 10]: 0.061 nM
- IC50 [8, 13]: 0.35 nM

Compound: COc1cc2cc(c1Cl)N1CC(O)C(C)(O)C(=O)N[C@@H](C)C(=O)O[C@@H](CC1=O)[C@]1(C)OC1[C@H](C)[C@@H]1C[C@@](O)(NC(=O)O1)[C@H](OC)/C=C/C=C(\C)C2OC (some centres unmarked) [trenudine]
- antitumor activity against KB cells (KB cells): retain antitumor activity
- antitumor activity against P388 lymphocytic leukemia [1]: retain antitumor activity

Compound: COc1cc2cc(c1Cl)N(C)C(=O)C[C@H](OC(=O)C(C)N(C)C(=O)C(C)C)[C@]1(C)O[C@H]1[C@H](C)[C@@H]1C[C@@](O)(NC(=O)O1)[C@H](OC)/C=C/C=C(\C)C2 (some centres unmarked) [Compound 5, Maytanbutine]
- IC50 [2, 10]: 0.054 nM
- IC50 [3, 11]: 0.13 nM
- IC50 [4, 12]: 0.061 nM
- IC50 [5, 10]: 0.05 nM
- IC50 [8, 13]: 0.13 nM

Compound: CC[C@]1(O)C[C@@H]2CN(CCc3c([nH]c4ccccc34)[C@@](C(=O)OC)(c3cc4c(cc3OC)N(C)[C@H]3[C@@](O)(C(=O)OC)[C@H](OC(C)=O)[C@]5(CC)C=CCN6CC[C@]43[C@@H]65)C2)C1 [vinblastine, Vinblastine]
- inhibition at 0.04 µg/mL ([2]; Homo sapiens, LNCaP, at 40 ng/mL, positive control, read-out: inhibition against LNCaP): 89%
- inhibition at 0.04 µg/mL ([3]; Homo sapiens, MCF7, at 40 ng/mL, positive control, read-out: inhibition against MCF-7): 70%
- inhibition at 0.04 µg/mL ([4]; Homo sapiens, Col2, at 40 ng/mL, positive control, read-out: inhibition against Col2): 87%
- inhibition at 0.04 µg/mL ([8]; Homo sapiens, Lu1, at 40 ng/mL, positive control, read-out: inhibition against Lu-1): 54%

Compound: COc1cc2cc(c1Cl)N(C)C(=O)C[C@H](OC(=O)[C@H](C)N(C)C(C)=O)[C@]1(C)O[C@H]1[C@H](C)[C@@H]1C[C@@](O)(NC(=O)O1)[C@H](OC)/C=C/C=C(\C)C2 [Compound 3, Maytansine]
- IC50 [2, 10]: 0.32 nM
- IC50 [3, 11]: 0.69 nM
- IC50 [4, 12]: 0.19 nM
- IC50 [5, 10]: 0.17 nM
- IC50 [8, 13]: 0.77 nM
- systemic toxicity in human clinical trials [9]: unacceptable systemic toxicity
